# Data reported in US20250268884A1, “Deuterated Domperidone for Treating Gastroparesis” (CinDome Pharma, Inc., priority 2022, published 2025).
# Tested on: adults with idiopathic or diabetic gastroparesis
# Test: Safety: adverse events, laboratory values, vital signs, Phase 2a
# Settings: for Any Aes, % of subjects / Any Aes, n subjects / Any TEAEs by maximum severity: Mild, % of subjects / Any TEAEs by maximum severity: Mild, n subjects / Any TEAEs by maximum severity: Moderate, % of subjects / Any TEAEs by maximum severity: Moderate, n subjects / Any TEAEs by maximum severity: Severe, % of subjects / Any TEAEs by maximum severity: Severe, n subjects / Any TEAEs leading to death, % of subjects / Any TEAEs leading to death, n subjects / Any TEAEs leading to discontinuation, % of subjects / Any TEAEs leading to discontinuation, n subjects / Any TEAEs, % of subjects / Any TEAEs, e (number of events) / Any TEAEs, n subjects / Any serious TEAEs, % of subjects / Any serious TEAEs, n subjects / Any study drug-related TEAEs by maximum severity: Mild, % of subjects / Any study drug-related TEAEs by maximum severity: Mild, n subjects / Any study drug-related TEAEs by maximum severity: Moderate, % of subjects / Any study drug-related TEAEs by maximum severity: Moderate, n subjects / Any study drug-related TEAEs by maximum severity: Severe, % of subjects / Any study drug-related TEAEs by maximum severity: Severe, n subjects / Any study drug-related TEAEs leading to discontinuation, % of subjects / Any study drug-related TEAEs leading to discontinuation, n subjects / Any study drug-related TEAEs, % of subjects / Any study drug-related TEAEs, n subjects / Any study drug-related serious TEAEs, % of subjects / Any study drug-related serious TEAEs, n subjects / subjects who experienced a TEAE: Safety Population
# Protocol: Safety was evaluated through assessments of Aes, vital signs, physical examinations, clinical laboratory evaluations (including prolactin), and ECG findings. Additionally, a single, optional PGx blood sample may have been collected at any time during the subject's participation in the study.
# Safety variables included Aes, clinical laboratory results (including prolactin), vital signs, ECGs, and physical examination findings.
structure (smiles),measurement,setting,value
"[2H]c1c([2H])c([2H])c2c([nH]c(=O)n2CCCN2CCC(n3c(=O)[nH]c4cc(Cl)ccc43)CC2)c1[2H] [Deudomperidone, 1-{3-[4-(5-chloro-2-oxo-2,3-dihydro-1H-1,3-benzodiazol-1-yl)piperidin-1yl]propyl}-2,3-dihydro(4,5,6,7-D4)-1H-1,3-benzodiazol-2-one]","TEAE Nausea, %",10 mg BID (N = 30),(3.3) %
same,"TEAE Nervous system disorders, %",10 mg BID (N = 30),(0.0) %
same,"TEAE Palpitations, %",10 mg BID (N = 30),(3.3) %
same,"TEAE Sinusitis, %",10 mg BID (N = 30),(0.0) %
same,"TEAE Tinnitus, %",10 mg BID (N = 30),(3.3) %
same,"TEAE Vomiting, %",10 mg BID (N = 30),(3.3) %
same,"Any Aes, % of subjects",10 mg BID (N = 30),(23.3) %
same,"Any Aes, n subjects",10 mg BID (N = 30),7
same,"Any TEAEs by maximum severity: Mild, % of subjects",10 mg BID (N = 30),(10.0) %
same,"Any TEAEs by maximum severity: Mild, n subjects",10 mg BID (N = 30),3
same,"Any TEAEs by maximum severity: Moderate, % of subjects",10 mg BID (N = 30),(6.7) %
same,"Any TEAEs by maximum severity: Moderate, n subjects",10 mg BID (N = 30),2
same,"Any TEAEs by maximum severity: Severe, % of subjects",10 mg BID (N = 30),(3.3) %
same,"Any TEAEs by maximum severity: Severe, n subjects",10 mg BID (N = 30),1
same,"Any TEAEs leading to death, % of subjects",10 mg BID (N = 30),(0.0) %
same,"Any TEAEs leading to death, n subjects",10 mg BID (N = 30),0
same,"Any TEAEs leading to discontinuation, % of subjects",10 mg BID (N = 30),(0.0) %
same,"Any TEAEs leading to discontinuation, n subjects",10 mg BID (N = 30),0
same,"Any TEAEs, % of subjects",10 mg BID (N = 30),20.0%
same,"Any TEAEs, e (number of events)",10 mg BID (N = 30),11
same,"Any TEAEs, n subjects",10 mg BID (N = 30),6
same,"Any serious TEAEs, % of subjects",10 mg BID (N = 30),(0.0) %
same,"Any serious TEAEs, n subjects",10 mg BID (N = 30),0
same,"Any study drug-related TEAEs by maximum severity: Mild, % of subjects",10 mg BID (N = 30),(13.3) %
same,"Any study drug-related TEAEs by maximum severity: Mild, n subjects",10 mg BID (N = 30),4
same,"Any study drug-related TEAEs by maximum severity: Moderate, % of subjects",10 mg BID (N = 30),(0.0) %
same,"Any study drug-related TEAEs by maximum severity: Moderate, n subjects",10 mg BID (N = 30),0
same,"Any study drug-related TEAEs by maximum severity: Severe, % of subjects",10 mg BID (N = 30),(0.0) %
same,"Any study drug-related TEAEs by maximum severity: Severe, n subjects",10 mg BID (N = 30),0
same,"Any study drug-related TEAEs leading to discontinuation, % of subjects",10 mg BID (N = 30),(0.0) %
same,"Any study drug-related TEAEs leading to discontinuation, n subjects",10 mg BID (N = 30),0
same,"Any study drug-related TEAEs, % of subjects",10 mg BID (N = 30),(13.3) %
same,"Any study drug-related TEAEs, n subjects",10 mg BID (N = 30),4
same,"Any study drug-related serious TEAEs, % of subjects",10 mg BID (N = 30),(0.0) %
same,"Any study drug-related serious TEAEs, n subjects",10 mg BID (N = 30),0
same,subjects who experienced a TEAE,10 mg BID,6 (20.0%) subjects (%)
same,TEAE diarrhoea,20 mg QD,1 (6.7%) subjects (%)
same,TEAE electrocardiogram QT prolonged,20 mg QD,2 (13.3%) subjects (%)
same,TEAE hypoglycaemia,20 mg QD,1 (6.7%) subjects (%)
same,TEAEs reported,20 mg QD,8 TEAEs
same,"other TEAEs, each: constipation, dyspepsia, sinusitis, headache",20 mg QD,1 subject each
same,other study drug-related TEAE: headache,20 mg QD,1 subject each
same,study drug-related TEAE diarrhoea,20 mg QD,1 (6.7%) subjects (%)
same,study drug-related TEAE electrocardiogram QT prolonged,20 mg QD,2 (13.3%) subjects (%)
same,study drug-related TEAEs reported,20 mg QD,4 TEAEs
same,subjects with study drug-related TEAEs,20 mg QD,4 (26.7) subjects (%)
same,"Study drug-related TEAE Abdominal pain lower, %",20 mg QD (N = 15),(0.0) %
same,"Study drug-related TEAE Blood creatine phosphokinase increased, %",20 mg QD (N = 15),(0.0) %
same,"Study drug-related TEAE Cardiac disorders, %",20 mg QD (N = 15),(0.0) %
same,"Study drug-related TEAE Diarrhoea, %",20 mg QD (N = 15),(6.7) %
same,"Study drug-related TEAE Ear and labyrinth disorders, %",20 mg QD (N = 15),(0.0) %
same,"Study drug-related TEAE Electrocardiogram QT prolonged, %",20 mg QD (N = 15),(13.3) %
same,"Study drug-related TEAE Gastrointestinal disorders, %",20 mg QD (N = 15),(6.7) %
same,"Study drug-related TEAE Headache, %",20 mg QD (N = 15),(6.7) %
same,"Study drug-related TEAE Investigations, %",20 mg QD (N = 15),(13.3) %
same,"Study drug-related TEAE Nausea, %",20 mg QD (N = 15),(0.0) %
same,"Study drug-related TEAE Nervous system disorders, %",20 mg QD (N = 15),(6.7) %
same,"Study drug-related TEAE Palpitations, %",20 mg QD (N = 15),(0.0) %
same,"Study drug-related TEAE Tinnitus, %",20 mg QD (N = 15),(0.0) %
same,"Subjects with any TEAEs, %",20 mg QD (N = 15),40.0%
same,"Subjects with any TEAEs, e (events)",20 mg QD (N = 15),8
same,"Subjects with any study drug-related TEAE, %",20 mg QD (N = 15),26.7%
same,"Subjects with any study drug-related TEAE, e (events)",20 mg QD (N = 15),4
same,"TEAE Abdominal pain lower, %",20 mg QD (N = 15),(0.0) %
same,"TEAE Arthralgia, %",20 mg QD (N = 15),(0.0) %
same,"TEAE Back pain, %",20 mg QD (N = 15),(0.0) %
same,"TEAE Blood creatine phosphokinase increased, %",20 mg QD (N = 15),(0.0) %
same,"TEAE Cardiac disorders, %",20 mg QD (N = 15),(0.0) %
same,"TEAE Constipation, %",20 mg QD (N = 15),(6.7) %
same,"TEAE Decreased appetite, %",20 mg QD (N = 15),(0.0) %
same,"TEAE Diarrhoea, %",20 mg QD (N = 15),(6.7) %
same,"TEAE Dyspepsia, %",20 mg QD (N = 15),(6.7) %
same,"TEAE Ear and labyrinth disorders, %",20 mg QD (N = 15),(0.0) %
same,"TEAE Electrocardiogram QT prolonged, %",20 mg QD (N = 15),(13.3) %
same,"TEAE Gastrointestinal disorders, %",20 mg QD (N = 15),(13.3) %
same,"TEAE Headache, %",20 mg QD (N = 15),(6.7) %
same,"TEAE Hypoglycaemia, %",20 mg QD (N = 15),(6.7) %
same,"TEAE Infections and infestations, %",20 mg QD (N = 15),(6.7) %
same,"TEAE Investigations, %",20 mg QD (N = 15),(13.3) %
same,"TEAE Metabolism and nutrition disorders, %",20 mg QD (N = 15),(6.7) %
same,"TEAE Musculoskeletal and connective tissue disorders, %",20 mg QD (N = 15),(0.0) %
same,"TEAE Nausea, %",20 mg QD (N = 15),(0.0) %
same,"TEAE Nervous system disorders, %",20 mg QD (N = 15),(6.7) %
same,"TEAE Palpitations, %",20 mg QD (N = 15),(0.0) %
same,"TEAE Sinusitis, %",20 mg QD (N = 15),(6.7) %
same,"TEAE Tinnitus, %",20 mg QD (N = 15),(0.0) %
same,"TEAE Vomiting, %",20 mg QD (N = 15),(0.0) %
same,"Any Aes, % of subjects",20 mg QD (N = 15),(40.0) %
same,"Any Aes, n subjects",20 mg QD (N = 15),6
same,"Any TEAEs by maximum severity: Mild, % of subjects",20 mg QD (N = 15),(40.0) %
same,"Any TEAEs by maximum severity: Mild, n subjects",20 mg QD (N = 15),6
same,"Any TEAEs by maximum severity: Moderate, % of subjects",20 mg QD (N = 15),(0.0) %
same,"Any TEAEs by maximum severity: Moderate, n subjects",20 mg QD (N = 15),0
same,"Any TEAEs by maximum severity: Severe, % of subjects",20 mg QD (N = 15),(0.0) %
same,"Any TEAEs by maximum severity: Severe, n subjects",20 mg QD (N = 15),0
same,"Any TEAEs leading to death, % of subjects",20 mg QD (N = 15),(0.0) %
same,"Any TEAEs leading to death, n subjects",20 mg QD (N = 15),0
same,"Any TEAEs leading to discontinuation, % of subjects",20 mg QD (N = 15),(0.0) %
same,"Any TEAEs leading to discontinuation, n subjects",20 mg QD (N = 15),0
same,"Any TEAEs, % of subjects",20 mg QD (N = 15),40.0%
same,"Any TEAEs, e (number of events)",20 mg QD (N = 15),8
same,"Any TEAEs, n subjects",20 mg QD (N = 15),6
same,"Any serious TEAEs, % of subjects",20 mg QD (N = 15),(0.0) %
same,"Any serious TEAEs, n subjects",20 mg QD (N = 15),0
same,"Any study drug-related TEAEs by maximum severity: Mild, % of subjects",20 mg QD (N = 15),(26.7) %
same,"Any study drug-related TEAEs by maximum severity: Mild, n subjects",20 mg QD (N = 15),4
same,"Any study drug-related TEAEs by maximum severity: Moderate, % of subjects",20 mg QD (N = 15),(0.0) %
same,"Any study drug-related TEAEs by maximum severity: Moderate, n subjects",20 mg QD (N = 15),0
same,"Any study drug-related TEAEs by maximum severity: Severe, % of subjects",20 mg QD (N = 15),(0.0) %
same,"Any study drug-related TEAEs by maximum severity: Severe, n subjects",20 mg QD (N = 15),0
same,"Any study drug-related TEAEs leading to discontinuation, % of subjects",20 mg QD (N = 15),(0.0) %
same,"Any study drug-related TEAEs leading to discontinuation, n subjects",20 mg QD (N = 15),0
same,"Any study drug-related TEAEs, % of subjects",20 mg QD (N = 15),(26.7) %
same,"Any study drug-related TEAEs, n subjects",20 mg QD (N = 15),4
same,"Any study drug-related serious TEAEs, % of subjects",20 mg QD (N = 15),(0.0) %
same,"Any study drug-related serious TEAEs, n subjects",20 mg QD (N = 15),0
same,subjects who experienced a TEAE,20 mg QD,6 (40.0%) subjects (%)
same,severity of study drug-related TEAEs,all dose groups,mild in severity
same,"deaths, serious TEAEs, discontinuations due to a TEAE","all dose groups, 14 days","no deaths, serious TEAEs, or discontinuations due to a TEAE"
same,changes from baseline in laboratory parameters,over treatment period,no meaningful changes from baseline
